What all share (format): cell-based
In assay [1] the target is T1, AR protein (Homo sapiens, UniProt P10275, T878A).
T1 construct: degradation activity of the compounds disclosed in the present disclosure on AR protein in LNCaP cells; host or cells: LNCaP FGC
T1 sequence (P10275 1-920 T878A): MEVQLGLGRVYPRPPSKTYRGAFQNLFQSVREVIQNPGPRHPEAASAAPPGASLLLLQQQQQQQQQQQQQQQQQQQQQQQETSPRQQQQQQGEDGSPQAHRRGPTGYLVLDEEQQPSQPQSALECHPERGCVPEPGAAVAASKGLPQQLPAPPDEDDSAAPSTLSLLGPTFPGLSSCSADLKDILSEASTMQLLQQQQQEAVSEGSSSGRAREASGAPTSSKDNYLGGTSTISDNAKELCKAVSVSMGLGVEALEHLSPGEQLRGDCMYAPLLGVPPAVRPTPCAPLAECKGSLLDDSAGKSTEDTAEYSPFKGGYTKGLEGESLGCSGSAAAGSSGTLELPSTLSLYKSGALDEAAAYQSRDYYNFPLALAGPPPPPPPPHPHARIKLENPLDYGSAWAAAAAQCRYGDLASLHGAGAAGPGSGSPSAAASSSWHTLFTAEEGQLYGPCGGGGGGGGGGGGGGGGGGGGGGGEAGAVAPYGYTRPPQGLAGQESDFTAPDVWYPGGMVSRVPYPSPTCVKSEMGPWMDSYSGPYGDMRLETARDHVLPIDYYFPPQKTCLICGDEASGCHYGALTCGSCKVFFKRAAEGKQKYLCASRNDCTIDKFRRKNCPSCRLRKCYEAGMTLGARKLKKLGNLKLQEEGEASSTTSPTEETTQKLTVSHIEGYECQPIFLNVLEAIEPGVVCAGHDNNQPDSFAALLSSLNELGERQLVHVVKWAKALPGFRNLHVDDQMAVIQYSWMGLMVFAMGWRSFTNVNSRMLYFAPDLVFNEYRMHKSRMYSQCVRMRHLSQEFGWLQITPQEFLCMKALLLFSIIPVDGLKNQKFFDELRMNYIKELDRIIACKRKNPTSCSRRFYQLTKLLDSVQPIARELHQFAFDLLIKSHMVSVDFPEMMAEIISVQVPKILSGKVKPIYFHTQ
Put plainly: Degradation of AR protein in LNCaP cells (Western blot). Conditions: for inhibition at 0.01 µM: read-out: Degradation rates of the AR protein in LNCaP cells, 10 nM (%); for inhibition at 0.1 µM: read-out: Degradation rates of the AR protein in LNCaP cells, 100 nM (%). Summed up:
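AR assessed by SDS-PAGE/Western blot with infrared imaging; band greyscale normalised to GAPDH gave percent degradation.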
On the technique in general: Immunoblotting shows a protein as a band on a membrane.

For assay [2], the system named is VCaP cells. Put plainly: Inhibition of proliferation of VCaP cells (WST-8). Conditions: Homo sapiens, read-out: IC50 for inhibiting the proliferation of VCaP cells. Summed up:
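VCaP FGC cells, 15000 per well in DMEM with 10% FBS, were cultured at 37° C, 5% CO2. On day nine, WST-8 reagent was added to read proliferation.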
(In general: Tetrazolium dyes change colour on reduction, which living cells bring about.)

For assay [3], the target named is T2, AR protein (Homo sapiens, UniProt P10275).
T2 construct: degradation activity of the compounds disclosed in the present disclosure on AR protein in VCaP cells; host or cells: VCaP
T2 sequence (P10275 1-920): T1 sequence (P10275 1-920 T878A) with A878T
Kind of assay: Degradation of AR protein in VCaP cells (Western blot). The settings on record: 8 hours; for inhibition at 0.01 µM: compound at 10 nM, read-out: Degradation rate of the AR protein in VCaP cells, 10 nM (%); for inhibition at 0.1 µM: compound at 100 nM, read-out: Degradation rate of the AR protein in VCaP cells, 100 nM (%). In outline:
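VCaP cells treated with compound alongside solvent controls for 8 h, then lysed in RIPA and protein quantified by BCA. AR detected by SDS-PAGE/Western blot with infrared imaging. Degradation rate calculated from band grayscale, with GAPDH as internal reference.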

Assay [4] concerns LNCaP FGC cells. Kind of assay: Inhibition of proliferation of LNCaP cells (WST-8). Conditions: Homo sapiens, LNCaP, 96 h. As for the experimental part:
The cells were cultured in a cell culture incubator with 5% CO2 at 37° C. overnight. […] On the sixth day, 96 well plates were taken out, and 20 μL of WST-8 (Beytime, C0040) reagent was added to each well.

Setting [5] is: LNCaP cells, compound 10 nM, 8 hours, Western blot grayscale, GAPDH internal reference.
Where [6] appears, read: LNCaP cells, compound 100 nM, 8 hours, Western blot grayscale, GAPDH internal reference.
The mark [7] stands for this setting: VCaP cells, 168 hours, WST-8 absorbance at 450 nm.
The mark [8] stands for this setting: LNCaP FGC cells, 96 hours, WST-8 absorbance at 450 nm, read-out: IC50 for inhibiting the proliferation of LNCaP cells.
[9] abbreviates: read-out: IC50 for inhibiting the proliferation of LNCaP cells, LNCaP FGC cells, 96 hours, WST-8 absorbance at 450 nm.

Structures are written as SMILES. Where a chain is given by its changes, count along the chain named. Read-outs that look alike come from different tables or passages of the source.

On to `CC1(C)[C@H](NC(=O)c2ccc(N3CCC(F)(CN4CCC5(CC4)COc4c5ccc5c4CN(C4CCC(=O)NC4=O)C5=O)CC3)nn2)C(C)(C)[C@H]1Oc1ccc(C#N)c(C(F)(F)F)c1` (stereo partly drawn) [Compound 237], for which the inhibition at 0.01 µM was 6% in assay [1] (setting [5]) and -46% in assay [3]. Besides, the inhibition at 0.1 µM in assay [1] (setting [6]) was found to be 39%; in assay [3] it was 23%. In addition, the IC50 in assay [2] (setting [7]) is 4.5 nM; in assay [4] (setting [8]), 51 nM.
Regarding `N#Cc1ccc(O[C@H]2CC[C@H](NC(=O)c3ccc(N4CCC(CN5CCC6(CC5)COc5cc7c(cc5C6)C(=O)N(C5CCC(=O)NC5=O)C7=O)CC4)nn3)CC2)cc1Cl` (stereo partly drawn) [Compound 72], the inhibition at 0.01 µM in assay [1] (setting [5]) is 81%; in assay [3], 75%. Besides, the inhibition at 0.1 µM in assay [1] (setting [6]) was found to be 92%; in assay [3], 85%. The IC50 turned out to be 100 nM in assay [2] (setting [7]) and 50 nM in assay [4] (setting [8]).
Regarding `CC1(CN2CC3(CCc4cc5c(cc4O3)C(=O)N(C3CCC(=O)NC3=O)C5=O)C2)CCN(c2ccc(C(=O)N[C@H]3CC[C@H](Oc4ccc(C#N)c(Cl)c4)CC3)nn2)CC1` (stereo partly drawn) [Compound 2], the inhibition at 0.01 µM in assay [1] (setting [5]) was found to be 66%; in assay [3], 21%. Also, the inhibition at 0.1 µM in assay [1] (setting [6]) came out at 50%; in assay [3], 56%. The IC50 in assay [2] (setting [7]) was 3910 nM; in assay [4] (setting [8]), 1250 nM.
Turning to `COC1(CN2CCC3(CC2)COc2cc4c(cc2C3)C(=O)N(C2CCC(=O)NC2=O)C4=O)CCN(c2ccc(C(=O)NC3CCC(Oc4ccc(C#N)c(Cl)c4)CC3)nn2)CC1` (stereo not drawn) [Compound 69], the inhibition at 0.01 µM in assay [1] (setting [5]) was found to be 26%; in assay [3], 50%. Further, the figures for the inhibition at 0.1 µM in assay [1] (setting [6]) and in assay [3] were 64% and 78%, respectively. Moreover, the IC50 in assay [2] (setting [7]) was found to be 960 nM; in assay [4] (setting [8]), 390 nM.
Take `N#Cc1ccc(O[C@H]2CC[C@H](NC(=O)c3ccc(N4CCC(C#N)(CN5CCC6(CC5)COc5c6ccc6c5C(=O)N(C5CCC(=O)NC5=O)C6=O)CC4)nn3)CC2)cc1C(F)(F)F` (stereo partly drawn) [Compound 228]: the inhibition at 0.01 µM in assay [1] (setting [5]) is 30%; in assay [3] it was -9%. Also, the inhibition at 0.1 µM in assay [1] (setting [6]) came to 56%; in assay [3], 18%. The IC50 in assay [2] (setting [7]) amounted to 470 nM; in assay [4] (setting [8]) it was 2290 nM.
On to `COc1cc(O[C@H]2C(C)(C)[C@H](NC(=O)c3ccc(N4CCC(C)(CN5CC6(CCc7cc8c(cc7O6)C(=O)N(C6CCC(=O)NC6=O)C8=O)C5)CC4)cc3)C2(C)C)ccc1C#N` (stereo partly drawn) [Compound 291], for which the inhibition at 0.01 µM in assay [1] (setting [5]) was found to be 9%; in assay [3], 21%. The results for the inhibition at 0.1 µM in assay [1] (setting [6]) and in assay [3] were 57% and 53%, respectively. For the same compound, the values for the IC50 in assay [2] (setting [7]) and in assay [4] (setting [8]) were 47 nM and 2880 nM, respectively.
For the compound `N#Cc1ccc(O[C@H]2CC[C@H](NC(=O)c3ccc(N4CCC5(CC4)COc4cc6c(cc45)C(=O)N(C4CCC(=O)NC4=O)C6=O)nn3)CC2)cc1Cl` (stereo partly drawn) [Compound 52], the values for the inhibition at 0.01 µM in assay [1] (setting [5]) and in assay [3] were 43% and 16%, respectively. The inhibition at 0.1 µM came out at 22% in assay [1] (setting [6]) and 26% in assay [3]. Moreover, the IC50 in assay [2] (setting [7]) came out at 6800 nM; in assay [4] (setting [8]), 4500 nM.
`N#Cc1ccc(O[C@H]2CC[C@H](NC(=O)c3ccc(C#Cc4ccc(N5CCC6(CC5)COc5c6ccc6c5CN(C5CCC(=O)NC5=O)C6=O)nc4)nn3)CC2)cc1Cl` (stereo partly drawn) [Compound 239]: the inhibition at 0.01 µM is 65% in assay [1] (setting [5]) and 11% in assay [3]. Also, the figures for the inhibition at 0.1 µM in assay [1] (setting [6]) and in assay [3] were 69% and 54%, respectively. The results for the IC50 in assay [2] (setting [7]) and in assay [4] (setting [8]) were 22 nM and 13500 nM, respectively.
In the case of `CCC1(CN2CCC3(CC2)COc2c3ccc3c2C(=O)N(C2CCC(=O)NC2=O)C3=O)CCN(c2ccc(C(=O)N[C@H]3CC[C@H](Oc4ccc(C#N)c(Cl)c4)CC3)nn2)CC1` (stereo partly drawn) [Compound 249], the inhibition at 0.01 µM is -5% in assay [1] (setting [5]) and -21% in assay [3]. The results for the inhibition at 0.1 µM in assay [1] (setting [6]) and in assay [3] were 51% and 56%, respectively. Also, the values for the IC50 in assay [2] (setting [7]) and in assay [4] (setting [8]) were 220 nM and 12100 nM, respectively.
`N#Cc1ccc(O[C@H]2CC[C@H](NC(=O)c3ccc(N4CC(N5CC6(CCc7cc8c(cc7O6)C(=O)N(C6CCC(=O)NC6=O)C8=O)C5)C4)nn3)CC2)cc1Cl` (stereo partly drawn) [Compound 5]: the inhibition at 0.01 µM worked out at 51% in assay [1] (LNCaP, 8 h) and 41% in assay [3]. Besides, the inhibition at 0.1 µM turned out to be 35% in assay [1] (LNCaP, 8 h) and 51% in assay [3]. Moreover, the IC50 in assay [2] (VCaP, 168 h) is 4500 nM; in assay [4] (setting [9]) it was 710 nM.
With `N#Cc1ccc(O[C@H]2CC[C@H](NC(=O)c3ccc(N4CCC(N5CCC6(CC5)COc5cc7c(cc56)C(=O)N(C5CCC(=O)NC5=O)C7=O)CC4)nn3)CC2)cc1Cl` (stereo partly drawn) [Compound 48], the inhibition at 0.01 µM stood at 73% in assay [1] (LNCaP, 8 h) and 69% in assay [3]. For the same compound, the inhibition at 0.1 µM was found to be 91% in assay [1] (LNCaP, 8 h) and 82% in assay [3]. Further, the IC50 in assay [2] (VCaP, 168 h) amounted to 180 nM; in assay [4] (setting [9]) it was 1670 nM.
As to `N#Cc1ccc(O[C@H]2CC[C@H](NC(=O)c3ccc(N4CCC(N5CCC6(CCc7cc8c(cc7O6)C(=O)N(C6CCC(=O)NC6=O)C8=O)CC5)CC4)nn3)CC2)cc1Cl` (stereo partly drawn) [Compound 26], the inhibition at 0.01 µM was determined as 61% in assay [1] (LNCaP, 8 h) and 48% in assay [3]. Besides, the inhibition at 0.1 µM in assay [1] (LNCaP, 8 h) stood at 56%; in assay [3], 56%. Besides, the IC50 in assay [2] (VCaP, 168 h) was determined as 750 nM; in assay [4] (setting [9]) it was 1200 nM.
